# Measured values: ChEMBL document CHEMBL2380207, “Recent advances in natural products from plants for treatment of liver diseases” (Eur J Med Chem, 2013)
# Assay: Inhibition of Hepatitis C virus protease
# Design: species or system Hepacivirus hominis
compound,measurement,value
CC1Cc2cccc(O)c2C(=O)O1 (stereo unspecified) [MELLEIN],IC50,35 µM
